# pKd: −log10 of the molar value.
# Key:
# [1] = biological target: cyclohexanone monooxygenase (CHMO) (Acinetobacter johnsonii, UniProt P12015); test: FAD absorbance change on titration; format: binding
# [2] = biological target: cyclohexanone monooxygenase (CHMO) (Acinetobacter johnsonii, UniProt P12015, L323C/A325C); conditions: oxidised enzyme, engineered disulfide formed
compound,measurement,setting,value
NC(=O)c1ccc[n+]([C@@H]2O[C@H](COP(=O)(O)OP(=O)(O)OC[C@H]3O[C@@H](n4cnc5c(N)ncnc54)[C@H](OP(=O)(O)O)[C@@H]3O)[C@@H](O)[C@H]2O)c1 [NADP^+],pKd,[1],4.55
same,pKd,[2],4.82

# Reference: article PMC3953729 (FEBS Open Bio, 2014)
